Data as given in ChEMBL document CHEMBL4665661, “Design, synthesis, and biological activity evaluation of (-)-6-O-desmethylantofine analogues as potent anti-cancer agents” (Bioorg Med Chem, 2019).
Activity calls are given as the source filed them. The rule behind the calls is not given here.

What was measured:
Bel-7402 [1] = experiment: Antiproliferative activity against human Bel-7402 cells after 72 hrs by SRB assay; format: functional, cell-based; details: Bel-7402, 72 h
Bel-7402 [2] = experiment: Antiproliferative activity against human Bel-7402 cells at 11 to 33 nM by IncuCyte zoom live cell analysis; format: functional, cell-based; details: dose nM 11-33
COLO 205 = experiment: Antiproliferative activity against human COLO 205 cells incubated for 72 hrs by MTT assay; format: functional, cell-based
K562 [3] = experiment: Antiproliferative activity against human K562 cells incubated for 72 hrs by MTT assay; format: functional, cell-based
786-0 = experiment: Antiproliferative activity against human 786-0 cells incubated for 72 hrs by MTT assay; format: functional, cell-based
Zip177 = experiment: Cell cycle arrest in human Zip177 cells assessed as inhibition of DNA synthesis by measuring increase in cell population at S phase at 20 to 200 nM after 24 hrs by RNase A/propidium iodide staining-based flow cytometric analysis; format: functional
K562 [4] = experiment: Antiproliferative activity against human K562 cells; format: functional, cell-based
[5] = Antiproliferative activity against drug-resistant human KB/VCR cells; format: functional, cell-based
Detroit 562 = experiment: Antiproliferative activity against human Detroit 562 cells incubated for 72 hrs by MTT assay; format: functional, cell-based
Bel-7402 [6] = experiment: Induction of apoptosis in human Bel-7402 cells assessed as early apoptotic cells at 0.01 uM after 72 hrs by FITC-annexin V/propidium iodide-double staining based flow cytometry (reference value: 0.65%); format: functional
Bel-7402 [7] = experiment: Induction of apoptosis in human Bel-7402 cells assessed as viable cells at 1 uM after 72 hrs by FITC-annexin V/propidium iodide-double staining based flow cytometry (reference value: 93.6%); format: functional; details: read-out: Activity
BXPC-3 = experiment: Antiproliferative activity against human BxPC-3 cells incubated for 72 hrs by MTT assay; format: functional, cell-based
KB [8] = experiment: Cell cycle arrest in drug- resistant human KB/VCR cells assessed as inhibition of DNA synthesis by measuring increase in cell population at S phase at 1 to 10 nM upto 12 hrs by RNase A/propidium iodide staining-based flow cytometric analysis; format: functional; details: dose nM 1-10, time hrs <=12
SGC-7901 = experiment: Antiproliferative activity against human SGC-7901 cells incubated for 72 hrs by MTT assay; format: functional, cell-based
SJRH30 = experiment: Antiproliferative activity against human SJRH30 cells incubated for 72 hrs by MTT assay; format: functional, cell-based
KB [9] = experiment: Cell cycle arrest in human KB cells assessed as inhibition of DNA synthesis by measuring increase in cell population at S phase at 1 to 10 nM upto 12 hrs by RNase A/propidium iodide staining-based flow cytometric analysis; format: functional; details: dose nM 1-10, time hrs <=12
A549 = experiment: Antiproliferative activity against human A549 cells incubated for 72 hrs by MTT assay; format: functional, cell-based
Bel-7402 [10] = experiment: Cell cycle arrest in human Bel-7402 cells assessed as increase in cell population at S phase at 3.7 nM by RNase A/propidium iodide staining-based flow cytometric analysis (reference value: 26.3%); format: functional
KB [11] = experiment: Antiproliferative activity against human KB cells; format: functional, cell-based
SK-BR-3 = experiment: Antiproliferative activity against human SK-BR-3 cells incubated for 72 hrs by MTT assay; format: functional, cell-based
Bel-7402 [12] = experiment: Induction of apoptosis in human Bel-7402 cells assessed as necrotic cells at 1 uM after 72 hrs by FITC-annexin V/propidium iodide-double staining based flow cytometry (reference value: 2.86%); format: functional
Bel-7402 [13] = experiment: Cell cycle arrest in human Bel-7402 cells assessed as increase in cell population at S phase at 100 nM by RNase A/propidium iodide staining-based flow cytometric analysis (reference value: 26.3%); format: functional
Bel-7402 [14] = experiment: Induction of apoptosis in human Bel-7402 cells assessed as early apoptotic cells at 0.1 uM after 72 hrs by FITC-annexin V/propidium iodide-double staining based flow cytometry (reference value: 0.65%); format: functional
Bel-7402 [15] = experiment: Induction of apoptosis in human Bel-7402 cells assessed as viable cells at 0.01 uM after 72 hrs by FITC-annexin V/propidium iodide-double staining based flow cytometry (reference value: 93.6%); format: functional; details: read-out: Activity
Bel-7402 [16] = experiment: Cell cycle arrest in human Bel-7402 cells assessed as increase in cell population at S phase at 33 nM by RNase A/propidium iodide staining-based flow cytometric analysis (reference value: 26.3%); format: functional
Bel-7402 [17] = experiment: Cell cycle arrest in human Bel-7402 cells assessed as increase in cell population at S phase at 1.2 nM by RNase A/propidium iodide staining-based flow cytometric analysis (reference value: 26.3%); format: functional
Bel-7402 [18] = experiment: Inhibition of colony formation in human Bel-7402 cells upto 1 uM incubated for 24 hrs measured after 12 days by 2D colony formation assay; format: functional, cell-based; details: time 12.0 day
Bel-7402 [19] = experiment: Induction of apoptosis in human Bel-7402 cells assessed as late apoptotic cells at 0.01 uM after 72 hrs by FITC-annexin V/propidium iodide-double staining based flow cytometry (reference value: 3.06%); format: functional
Bel-7402 [20] = experiment: Effect on DNA damage marker protein level in human Bel-7402 cells assessed as phosphor gamma H2AX at 100 fold antiproliferative IC50 after 1 hr by Western blot analysis; format: functional, cell-based
PC-3 = experiment: Antiproliferative activity against human PC-3 cells incubated for 72 hrs by MTT assay; format: functional, cell-based
K562 [21] = experiment: Cell cycle arrest in drug- resistant human K562/ADR cells assessed as inhibition of DNA synthesis by measuring increase in cell population at S phase at 1 to 100 nM upto 24 hrs by RNase A/propidium iodide staining-based flow cytometric analysis; format: functional; details: dose nM 1-100, time hrs <=24
MKN-45 = experiment: Antiproliferative activity against human MKN-45 cells incubated for 72 hrs by MTT assay; format: functional, cell-based
Bel-7402 [22] = experiment: Antiproliferative activity against human Bel-7402 cells incubated for 72 hrs by MTT assay; format: functional, cell-based
T47D = experiment: Antiproliferative activity against human T47D cells incubated for 72 hrs by MTT assay; format: functional, cell-based
Bel-7402 [23] = experiment: Inhibition of DNA synthesis in human Bel-7402 cells assessed as Brdu positive cells at 0.01 uM measured after 1 hr by propidium iodide staining-based BrdU incorporation assay (reference value: 29.8%); format: functional; parameters: scale not given: the % may be the effect or the level left; details: time 30 min, 0.5 h
K562/Adr = experiment: Antiproliferative activity against drug- resistant human K562/ADR cells; format: functional, cell-based
Bel-7402 [24] = experiment: Induction of apoptosis in human Bel-7402 cells assessed as late apoptotic cells at 0.1 uM after 72 hrs by FITC-annexin V/propidium iodide-double staining based flow cytometry (reference value: 3.06%); format: functional
U-118-MG = experiment: Antiproliferative activity against human U-118-MG cells incubated for 72 hrs by MTT assay; format: functional, cell-based
K562 [25] = experiment: Cell cycle arrest in human K562 cells assessed as inhibition of DNA synthesis by measuring increase in cell population at S phase at 1 to 100 nM upto 24 hrs by RNase A/propidium iodide staining-based flow cytometric analysis; format: functional; details: dose nM 1-100, time hrs <=24
MDA-MB-157 = experiment: Antiproliferative activity against human MDA-MB-157 cells incubated for 72 hrs by MTT assay; format: functional, cell-based
Bel-7402 [26] = experiment: Cell cycle arrest in human Bel-7402 cells assessed as increase in cell population at S phase at 11 nM by RNase A/propidium iodide staining-based flow cytometric analysis (reference value: 26.3%); format: functional

- IC50 (Bel-7402 [1]): 12 nM
- IC50 (K562 [4]): 13.6 nM
- IC50 (KB [11]): 1100 nM
- IC50 (K562/Adr): 15.8 nM
SMILES: COc1cc2c3c(c4ccc(OCC#N)cc4c2cc1OC)CN1CCC[C@@H]1C3
- inhibition (Bel-7402 [2]): Active
- inhibition (COLO 205): Active
- inhibition (K562 [3]): Active
- inhibition (786-0): Active
- Activity (Zip177): Active
- IC50 [5]: 600 nM
- inhibition (Detroit 562): Active
- Activity (Bel-7402 [6]): 0.55%
- viability at 1 µM (Bel-7402 [7]): 79.2%
- inhibition (BXPC-3): Active
- Activity (KB [8]): Active
- inhibition (SGC-7901): Active
- inhibition (SJRH30): Active
- Activity (KB [9]): Active
- inhibition (A549): Active
- Activity (Bel-7402 [10]): 27%
- inhibition (SK-BR-3): Active
- Activity (Bel-7402 [12]): 3.73%
- Activity (Bel-7402 [13]): 41.3%
- Activity (Bel-7402 [14]): 0.78%
- viability at 0.01 µM (Bel-7402 [15]): 96.3%
- Activity (Bel-7402 [16]): 34%
- Activity (Bel-7402 [17]): 24.5%
- inhibition (Bel-7402 [18]): Active
- Activity (Bel-7402 [19]): 1.55%
- Activity (Bel-7402 [20]): inactive
- inhibition (PC-3): Active
- Activity (K562 [21]): Active
- inhibition (MKN-45): Active
- inhibition (Bel-7402 [22]): Active
- inhibition (T47D): Active
- Activity (Bel-7402 [23]): 26.9%
- Activity (Bel-7402 [24]): 8.29%
- inhibition (U-118-MG): Active
- Activity (K562 [25]): Active
- inhibition (MDA-MB-157): Active
- Activity (Bel-7402 [26]): 28.8%
